In patent US20030036531A1, “Use of lysophospholipids to inhibit mammalian phospholipase D” (Wisconsin Alumni Research Foundation, priority 2001, published 2003):
Each block holds one molecule with its values, some of them ahead of it.

Key:
[1] = molecular target: T1, partially purified PLD from rat brain membrane (Rattus norvegicus, UniProt P70496); assay: Measurement of PLD activity (partially purified rat brain PLD, 14C-PC substrate, TLC); assay type: biochemical; settings: for PLD activity, % of the control: 10 μM compound, standard mixture with 4.8 μM PIP2, 100 nM Arf, 5 μM GTPγS; for Km for PLD in the presence of inhibitor: Km without inhibitor 33.3 μM PC; for Vmax in the presence of inhibitor: Vmax without inhibitor 166.7 pmol/h, Lineweaver-Burk; for IC50: FIG. 2, read-out: Half-maximal inhibition of PLD activity
T1 construct: The activity of partially purified PLD from rat brain membrane was assayed; tissue Dr. Sue Goo Rhee (National Institutes of Health, Bethesda, Md.); host or cells: rat brain membranes
T1 sequence (P70496 1-1074): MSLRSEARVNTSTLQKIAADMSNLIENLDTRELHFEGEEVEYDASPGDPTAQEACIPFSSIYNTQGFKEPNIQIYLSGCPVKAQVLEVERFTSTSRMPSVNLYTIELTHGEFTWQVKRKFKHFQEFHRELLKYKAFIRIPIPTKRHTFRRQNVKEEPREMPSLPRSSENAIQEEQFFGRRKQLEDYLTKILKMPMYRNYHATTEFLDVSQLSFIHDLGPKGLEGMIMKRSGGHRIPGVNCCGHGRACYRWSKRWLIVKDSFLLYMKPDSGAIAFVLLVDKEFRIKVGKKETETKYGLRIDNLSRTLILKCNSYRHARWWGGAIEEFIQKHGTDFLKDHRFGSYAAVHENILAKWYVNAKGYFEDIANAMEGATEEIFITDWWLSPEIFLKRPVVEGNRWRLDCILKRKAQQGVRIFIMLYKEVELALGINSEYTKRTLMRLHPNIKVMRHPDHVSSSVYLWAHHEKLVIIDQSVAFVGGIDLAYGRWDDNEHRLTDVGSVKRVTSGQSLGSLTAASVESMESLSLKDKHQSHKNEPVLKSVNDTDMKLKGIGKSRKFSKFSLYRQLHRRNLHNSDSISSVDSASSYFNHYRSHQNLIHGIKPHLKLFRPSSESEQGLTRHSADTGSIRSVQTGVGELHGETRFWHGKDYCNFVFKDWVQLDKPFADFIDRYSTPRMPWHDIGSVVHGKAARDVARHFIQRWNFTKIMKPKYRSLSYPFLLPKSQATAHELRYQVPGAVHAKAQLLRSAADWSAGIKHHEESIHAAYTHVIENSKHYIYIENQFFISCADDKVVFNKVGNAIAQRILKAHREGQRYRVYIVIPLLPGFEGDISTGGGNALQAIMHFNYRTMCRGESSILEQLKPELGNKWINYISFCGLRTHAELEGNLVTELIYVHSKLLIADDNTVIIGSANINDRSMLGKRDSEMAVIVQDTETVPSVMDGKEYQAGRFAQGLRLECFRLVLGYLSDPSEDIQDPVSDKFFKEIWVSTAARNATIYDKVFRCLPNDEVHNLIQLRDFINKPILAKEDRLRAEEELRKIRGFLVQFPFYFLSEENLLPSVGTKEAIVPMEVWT

[2] = tested on: human prostate cancer cell line PC-3; assay: PC-3 cell growth (cell viability after trypan blue staining); assay type: cell-based
Protocol: The influence of lysophospholipids on the inhibition of cancer cell growth was investigated. For this purpose, human prostate cancer cell line PC-3 was used. PC-3 cells were cultured using standard RPMI 1640 medium supplemented with 5% fetal bovine serum (FBS). The composition of RPMI 1640 included inorganic salts, glucose, amino acids and vitamins (see Rajesh, D., et al., Molecular Pharmacology 56:515-525 (1999) for details). PC-3 cells were cultured in the presence of various presence of various phospholipids. At appropriate times after treatment the cells were treated by trypsin EDTA treatment, washed twice in an ice cold buffer and analyzed for cell viability after staining with trypan blue (Sawicki, W., et al., Stain Technology 42:143 (1967)).

[3] = tested on: PLD activity in PC-3 cells; settings: cited from earlier work
PLD from plant tissues = settings: cited from earlier work
rat brain PLD = molecular target: T2, rat brain PLD (Rattus norvegicus, UniProt P70496); assay: Binding of lysophospholipids to PLD (vesicle precipitation assay followed by immunoblot); settings: 1 mM vesicles, 1,500 fold excess BSA
T2 construct: 200 ng of rat brain PLD; tissue Dr. Sue Goo Rhee (National Institutes of Health, Bethesda, Md.); host or cells: rat brain membranes
T2 sequence (P70496 1-1074): T1 sequence (P70496 1-1074)
Protocol: The binding ability of lysophospholipids to PLD was estimated by precipitation assay followed by immunoblot. The final assay volume was 0.3 ml containing 50 mM Hepes (pH 7.5), 3 mM EGTA, 80 mM KCl, 2.5 MM MgCl2, 2 mM CaCl2, 1% ethanol, 5 μM GTPγS, 33 nM myristoylated Arf, 300 μg of BSA, 200 ng of rat brain PLD and 1 mM lysophospholipid or phospholipid vesicles. After incubation at 37° C. for 10 minutes, the mixture was cooled in ice-water for 30 minutes and centrifuged at 17,000×g for 30 minutes at 4° C. The precipitant of lysophospholipid vesicles containing bound PLD in the excess of BSA (1,500 fold than rat PLD) was resuspended in 20 μL PBS (pH 7.5). The bound PLD was separated by 8% SDS-PAGE without reducing agent (2-mercaptoethanol) in sample loading buffer and transferred onto immunoblot membrane. The membrane was blotted with rabbit-PLD antibodies that detect both PLD 1 and PLD 2 isozymes. The PLD-antibody complex was visualized by staining alkaline phosphatase conjugated to a second antibody (Bio-Rad, Hercules, Calif.).

Molecule: O[C@H]1[C@H](O)[C@@H](O)[C@H](O)[C@@H](O)[C@H]1O [inositol, reference compound]
inhibition of PLD activity by headgroups ([1]; 10 μM): None of the headgroups such as choline, glycerol, inositol, or serine significantly inhibited PLD activity

Molecule: C=C(C)[C@@H]1CC=C(CO)CC1 [perillyl alcohol, reference compound]
inhibition of PC-3 cell growth compared to LPI (FIG. 10) ([2]; 1 mM): not as strong inhibitor of PC-3 cell growth as compared to LPI

Molecule: N[C@@H](CO)C(=O)O [serine, reference compound]
inhibition of PLD activity by headgroups ([1]; 10 μM): None of the headgroups such as choline, glycerol, inositol, or serine significantly inhibited PLD activity

Molecule: eLPE [reference compound]
effect on rat brain PLD activity ([1]; 10 μM (FIG. 1)): not inhibited but rather slightly stimulated

Molecule: lysophosphatidylserine [LPS]
Km for PLD in the presence of inhibitor ([1]; 4 μM inhibitor): did not change
Vmax in the presence of inhibitor ([1]; 4 μM inhibitor): 121.5 pmol/h
PLD activity, % of the control [1]: 30.3%
IC50 [1]: 6 µM
inhibition of activity of PLD from plant tissues (PLD from plant tissues): not significantly inhibited

Now from value to molecule, other results behind:

inhibition at 20 µM ([1]; 20 μM): 10%
inhibition at 40 µM ([1]; 40 μM): 20%
Molecule: CCCCCCCC/C=C\CCCCCCCC(=O)O [oleate, reference compound]

stimulatory effect on PLD activity ([1]; 10 μM): 6-9%
Molecule: Triton X-100 [reference compound]

stimulation of rat brain PLD ([1]; 10 and 20 μM, assay contains Arf and PIP2): not stimulated
Molecule: lysophosphatidic acid [reference compound]
effect on PLD activity in PC-3 cells [3]: stimulate PLD activity

PLD activity, % of the control [1]: 61.0%
Molecule: lysophosphatidylcholine [LPC, reference compound]
retardation of PC-3 cell growth (FIG. 8) [2]: able to retard the growth of PC-3 cells
inhibition of activity of PLD from plant tissues (PLD from plant tissues): not significantly inhibited

PLD activity, % of the control [1]: 24.9%
Molecule: lysophosphatidylglycerol [LPG]
retardation of PC-3 cell growth (FIG. 8) [2]: able to retard the growth of PC-3 cells
inhibition of activity of PLD from plant tissues (PLD from plant tissues): not significantly inhibited

co-precipitation of PLD proteins with lipid vesicles (rat brain PLD): co-precipitated
inhibition of PLD activity ([1]; 160 nM): 19%
inhibition of PLD activity ([1]; 640 nM): 27%
PLD activity, % of the control, in the absence of Arf ([1]; 4 μM inhibitor, no Arf (no Arf alone: 72%)): 33%
Km for PLD in the presence of inhibitor ([1]; 4 μM inhibitor): did not change
Vmax in the presence of inhibitor ([1]; 4 μM inhibitor): 76.9 pmol/h
PLD activity, % of the control [1]: 23.3%
change of PLD activity by addition of myristoylated Arf in presence of inhibitor ([1]; 15 μM inhibitor): not significantly changed
IC50 [1]: 3 µM
PLD inhibition when PIP2 concentration tripled ([1]; LPI 4 μM, LPS 12 μM, PIP2 4.8 vs 14.4 μM): not significantly changed
Molecule: lysophosphatidylinositol [LPI]
inhibition of PC-3 cell growth, lyso form vs phospholipid and inositol (FIG. 7) [2]: able to inhibit the PC-3 cell growth
retardation of PC-3 cell growth (FIG. 8) [2]: able to retard the growth of PC-3 cells
inhibition of PC-3 cell growth, concentration dependence (FIG. 9) ([2]; 100 μM): very inhibitory
